{"source": "patent US20240269139A1", "about": "“COMPOUNDS FOR TARGETED PROTEIN DEGRADATION OF KINASES” (DANA-FARBER CANCER INSTITUTE, INC., priority 2020, published 2024)", "assay_type_in_all_cases": "cell-based", "key": {"[1]": {"target": "T1, protein kinases (human kinome) (Homo sapiens, UniProt O14965)", "T1 sequence (O14965 1-403)": "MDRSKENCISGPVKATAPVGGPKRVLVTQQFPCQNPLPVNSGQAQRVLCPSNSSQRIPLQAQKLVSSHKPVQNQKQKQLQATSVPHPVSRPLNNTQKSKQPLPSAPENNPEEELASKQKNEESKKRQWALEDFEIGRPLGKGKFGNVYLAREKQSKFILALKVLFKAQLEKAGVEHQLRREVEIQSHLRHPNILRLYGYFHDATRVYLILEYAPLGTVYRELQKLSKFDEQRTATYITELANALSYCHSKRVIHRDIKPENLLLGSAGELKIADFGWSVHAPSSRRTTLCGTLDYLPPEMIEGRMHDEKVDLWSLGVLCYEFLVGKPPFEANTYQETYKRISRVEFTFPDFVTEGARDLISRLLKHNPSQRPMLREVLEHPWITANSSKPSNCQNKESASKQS"}, "[2]": {"target": "protein kinases (human kinome) (Homo sapiens, UniProt P11802)", "sequence (P11802 whole entry)": "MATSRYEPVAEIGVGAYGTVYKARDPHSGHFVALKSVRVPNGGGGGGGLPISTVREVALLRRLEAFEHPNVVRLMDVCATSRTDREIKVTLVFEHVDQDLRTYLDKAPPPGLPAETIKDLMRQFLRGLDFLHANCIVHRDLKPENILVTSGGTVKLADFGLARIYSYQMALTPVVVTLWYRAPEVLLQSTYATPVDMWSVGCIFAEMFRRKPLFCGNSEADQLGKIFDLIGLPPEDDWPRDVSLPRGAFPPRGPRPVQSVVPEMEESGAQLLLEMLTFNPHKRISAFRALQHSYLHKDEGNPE"}, "[3]": {"target": "protein kinases (human kinome) (Homo sapiens, UniProt P30291)", "sequence (P30291 whole entry)": "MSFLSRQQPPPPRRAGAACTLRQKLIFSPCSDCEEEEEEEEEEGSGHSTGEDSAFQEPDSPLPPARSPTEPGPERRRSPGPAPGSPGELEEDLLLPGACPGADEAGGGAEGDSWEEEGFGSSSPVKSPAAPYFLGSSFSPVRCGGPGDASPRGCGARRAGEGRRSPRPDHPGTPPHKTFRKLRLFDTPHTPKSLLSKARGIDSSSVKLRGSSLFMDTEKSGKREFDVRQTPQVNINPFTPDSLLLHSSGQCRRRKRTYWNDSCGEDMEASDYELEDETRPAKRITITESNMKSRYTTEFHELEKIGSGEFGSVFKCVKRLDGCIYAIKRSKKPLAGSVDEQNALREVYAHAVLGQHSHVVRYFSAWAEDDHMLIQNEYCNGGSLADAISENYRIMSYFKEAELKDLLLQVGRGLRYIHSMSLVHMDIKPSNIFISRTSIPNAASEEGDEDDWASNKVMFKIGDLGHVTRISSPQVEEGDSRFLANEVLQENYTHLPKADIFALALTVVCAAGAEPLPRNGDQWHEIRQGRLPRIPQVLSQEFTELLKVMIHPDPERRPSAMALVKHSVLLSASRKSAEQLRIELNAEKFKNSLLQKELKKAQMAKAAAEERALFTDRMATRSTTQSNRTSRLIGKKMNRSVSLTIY", "details": "experiment wp076; for logFC of WEE1: WEE1 P30291-1, degrader vs DMSO"}, "[4]": {"tested_on": "protein kinases (human kinome)", "details": "for logFC of LIMK2: LIMK2 P53671-3; for logFC PDK3: PDK3 (Q15120-2)"}, "[5]": {"details": "Accession O60566-3, experiment wp076, direction down"}, "[6]": {"details": "BUB1B (O60566-3), experiment wp076"}, "[7]": {"details": "CLK1 P49759-3, experiment wp076"}, "[8]": {"details": "CSNK1A1 (P48729-2), experiment wp076"}}, "note": "Read-outs that look alike come from different tables or passages of the source."}
{"smiles": "O=C1CCC(N2C(=O)c3cccc(NCCCCCCCCN4CCC(NC(=O)c5[nH]ncc5NC(=O)c5c(Cl)cccc5Cl)CC4)c3C2=O)C(=O)N1", "note": "(stereo not shown) [MFH.5.126.1]", "values": [{"measurement": "logFC AURKA (O14965)", "setting": "[1]; experiment wp076", "value": "−0.9474"}, {"measurement": "logFC CDK4 (P11802)", "setting": "[2]; experiment wp076", "value": "−0.608"}, {"measurement": "logFC of WEE1", "setting": "[3]", "value": "−0.9048"}, {"measurement": "logFC WEE1 (P30291-1)", "setting": "[3]", "value": "−0.9048"}, {"measurement": "logFC BUB1B", "setting": "[4]; [5]", "value": "−0.7532"}, {"measurement": "logFC CSNK1D", "setting": "[4]; Accession P48730-2, experiment wp076, direction down", "value": "−0.9201"}, {"measurement": "logFC GSK3B", "setting": "[4]; Accession P49841-2, experiment wp078, direction down", "value": "−0.9629"}, {"measurement": "logFC BUB1B", "setting": "[4]; [6]", "value": "−0.7532"}, {"measurement": "logFC", "setting": "[4]; CDK9 (P50750-2) protein abundance, degrader vs DMSO, down", "value": "−0.7008"}, {"measurement": "logFC", "setting": "[4]; [7]", "value": "−1.494"}, {"measurement": "logFC CLK1", "setting": "[4]; [7]", "value": "−1.494"}, {"measurement": "logFC", "setting": "[4]; [8]", "value": "−0.4586"}, {"measurement": "logFC CSNK1D", "setting": "[4]; CSNK1D P48730-2, experiment wp076", "value": "−0.9201"}, {"measurement": "logFC DAPK1 (P53355-3)", "setting": "[4]; Experiment wp076, direction of change down", "value": "−0.4488"}, {"measurement": "logFC GSK3B", "setting": "[4]; GSK3B P49841-2, experiment wp076", "value": "−0.9629"}, {"measurement": "logFC CDK9 (P50750-2)", "setting": "[4]; experiment wp076", "value": "−0.7008"}, {"measurement": "logFC of CSNK1A1 (P48729-2)", "setting": "[4]; experiment wp076", "value": "−0.4586"}, {"measurement": "logFC DAPK1", "setting": "[4]; protein DAPK1 (P53355-3), experiment wp076, down", "value": "−0.4488"}]}
{"smiles": "CC(C)(C)c1nc(-c2cccc(NS(=O)(=O)c3c(F)cccc3F)c2F)c(-c2ccnc(NCCOCCNC(=O)CCOCCOCCNc3cccc4c3C(=O)N(C3CCC(=O)NC3=O)C4=O)n2)s1", "note": "(stereo not shown) [DD.03.106]", "values": [{"measurement": "logFC AURKA (O14965)", "setting": "[1]; experiment wp147, 4 uM", "value": "−0.3302"}, {"measurement": "logFC CDK4 (P11802)", "setting": "[2]; experiment wp047", "value": "−0.9277"}, {"measurement": "logFC CDK4 (P11802)", "setting": "[2]; experiment wp137", "value": "−0.8885"}, {"measurement": "logFC CDK4 (P11802)", "setting": "[2]; experiment wp147, 1 uM", "value": "−0.6961"}, {"measurement": "logFC CDK4 (P11802)", "setting": "[2]; experiment wp147, 2 uM", "value": "−0.9835"}, {"measurement": "logFC CDK4 (P11802)", "setting": "[2]; experiment wp147, 4 uM", "value": "−0.726"}, {"measurement": "logFC", "setting": "[4]; ACAD10 (Q6JQN1-5), experiment wp147, 4 uM", "value": "−0.7404"}, {"measurement": "logFC of CDK17", "setting": "[4]; Accession Q00537-2, experiment wp137", "value": "−0.8682"}, {"measurement": "logFC MAP3K20 (Q9NYL2-2)", "setting": "[4]; Experiment wp147, 2 uM", "value": "−0.7388"}, {"measurement": "logFC MAP3K20 (Q9NYL2-2)", "setting": "[4]; Experiment wp147, 4 uM", "value": "−0.4901"}, {"measurement": "logFC", "setting": "[4]; GK P32189-3, experiment wp147, 4 uM", "value": "−0.4811"}, {"measurement": "logFC", "setting": "[4]; LIMK2 (P53671-3), experiment wp047, direction down", "value": "−0.962"}, {"measurement": "logFC", "setting": "[4]; LIMK2 (P53671-3), experiment wp147, 1 uM, direction down", "value": "−0.8736"}, {"measurement": "logFC", "setting": "[4]; LIMK2 (P53671-3), experiment wp147, 2 uM, direction down", "value": "−1.082"}, {"measurement": "logFC", "setting": "[4]; LIMK2 (P53671-3), experiment wp147, 4 uM, direction down", "value": "−0.9319"}, {"measurement": "logFC of LIMK2", "setting": "[4]; experiment wp047", "value": "−0.962"}, {"measurement": "logFC of LIMK2", "setting": "[4]; experiment wp147, 1 uM", "value": "−0.8736"}, {"measurement": "logFC of LIMK2", "setting": "[4]; experiment wp147, 2 uM", "value": "−1.082"}, {"measurement": "logFC of LIMK2", "setting": "[4]; experiment wp147, 4 uM", "value": "−0.9319"}, {"measurement": "logFC PDK3", "setting": "[4]; experiment wp137", "value": "−0.3571"}, {"measurement": "logFC PDK3", "setting": "[4]; experiment wp147, 4 uM", "value": "−0.6564"}, {"measurement": "logFC CDK16 (Q00536-2)", "setting": "[4]; experiment wp137", "value": "−1.175"}, {"measurement": "logFC PDK3 (Q15120-2)", "setting": "[4]; experiment wp137", "value": "−0.3571"}, {"measurement": "logFC of CDK17 (Q00537-2)", "setting": "[4]; experiment wp137", "value": "−0.8682"}, {"measurement": "logFC CDK16 (Q00536-2)", "setting": "[4]; experiment wp147, 1 uM", "value": "−0.5427"}, {"measurement": "logFC CDK16 (Q00536-2)", "setting": "[4]; experiment wp147, 2 uM", "value": "−0.5385"}, {"measurement": "logFC MAP3K20 (Q9NYL2-2)", "setting": "[4]; experiment wp147, 2 uM", "value": "−0.7388"}, {"measurement": "logFC CDK16 (Q00536-2)", "setting": "[4]; experiment wp147, 4 uM", "value": "−0.4393"}, {"measurement": "logFC MAP3K20 (Q9NYL2-2)", "setting": "[4]; experiment wp147, 4 uM", "value": "−0.4901"}]}
{"smiles": "CCc1cnn2c(N(Cc3ccc(N)nc3)C(=O)CCOCCOCCOCCNC(=O)CNc3cccc4c3C(=O)N(C3CCC(=O)NC3=O)C4=O)cc(N3CCCC[C@H]3CCO)nc12", "note": "(stereo partly shown) [MFH.5.115.2]", "values": [{"measurement": "logFC AURKA (O14965)", "setting": "[1]; experiment wp076", "value": "−0.5912"}, {"measurement": "logFC CDK4 (P11802)", "setting": "[2]; experiment wp076", "value": "−0.7246"}, {"measurement": "logFC of WEE1", "setting": "[3]", "value": "−0.7664"}, {"measurement": "logFC WEE1 (P30291-1)", "setting": "[3]", "value": "−0.7664"}, {"measurement": "logFC BUB1B", "setting": "[4]; [5]", "value": "−0.5013"}, {"measurement": "logFC BUB1B", "setting": "[4]; [6]", "value": "−0.5013"}, {"measurement": "logFC", "setting": "[4]; [8]", "value": "−0.349"}, {"measurement": "logFC of CSNK1A1 (P48729-2)", "setting": "[4]; experiment wp076", "value": "−0.349"}]}
